Results reported in ChEMBL document CHEMBL3797151, “Design, synthesis, assessment, and molecular docking of novel pyrrolopyrimidine (7-deazapurine) derivatives as non-nucleoside hepatitis C virus NS5B polymerase inhibitors” (Bioorg Med Chem, 2016).

Legend:
[1] = Cytotoxicity against human Huh7.5 cells infected with HCV genotype 4a assessed as morphological changes after 72 hrs by inverted light microscopy; assay type: cell-based, Huh-7
[2] = test system: Hepatitis C virus; test: Antiviral activity against HCV genotype 4a ED-43/SG-feo (VYG) replicons infected in human Huh7.5 cells assessed as inhibition of viral replication after 72 hrs by immunofluorescence assay; assay type: functional, organism-based, Hepacivirus hominis; details: Huh-7, 72 h
[3] = Cytotoxicity against human Huh7.5 cells infected with HCV genotype 4a assessed as cell viability after 72 hrs by trypan blue dye-based phase contrast microscopy; details: Huh-7, 72 h

Row | IC50 [2] [µM] | Structure (SMILES) | CC50 at 72 h [1] [µM] | CC50 [3] [µM]
1 | > 150 | Cc1cc(C)n(-c2ncnc3c2c(-c2ccccc2)c(-c2ccccc2)n3-c2cccc(Cl)c2)n1 | 147 | 147
2 | > 150 | O=c1[nH]cnc2c1c(-c1ccccc1)c(-c1ccccc1)n2C1CCCCC1 | 190 | 190
3 | > 150 | N#Cc1c(-c2ccccc2)c(-c2ccccc2)n(-c2ccc(Cl)cc2)c1N | 189 | 189
4 | > 150 | Cc1cccc(Nc2ncnc3c2c(-c2ccccc2)c(-c2ccccc2)n3-c2cccc(Cl)c2)c1 | 103 | 103
5 | > 150 | Cc1cccc(Nc2ncnc3c2c(-c2ccccc2)c(-c2ccccc2)n3C2CCCCC2)c1 | 131 | 131
6 | > 150 | O=c1[nH]cnc2c1c(-c1ccccc1)c(-c1ccccc1)n2-c1ccc(Cl)cc1 | 151 | 151
7 | > 150 | Clc1ccc(/C=N/Nc2ncnc3c2c(-c2ccccc2)c(-c2ccccc2)n3C2CCCCC2)cc1 | 158 | 158
8 | > 150 | Cc1nnc2c3c(-c4ccccc4)c(-c4ccccc4)n(-c4ccc(Cl)cc4)c3ncn12 | 138 | 138
9 | > 150 | O=c1[nH]nc2c3c(-c4ccccc4)c(-c4ccccc4)n(-c4ccc(Cl)cc4)c3ncn12 | 160 | 160
10 | > 150 | Clc1ncnc2c1c(-c1ccccc1)c(-c1ccccc1)n2C1CCCCC1 | 155 | 155
11 | > 150 | Cc1ccc(Nc2ncnc3c2c(-c2ccccc2)c(-c2ccccc2)n3-c2ccc(Cl)cc2)cc1 | 123 | 123
12 | > 150 | S=c1[nH]nc2c3c(-c4ccccc4)c(-c4ccccc4)n(-c4cccc(Cl)c4)c3ncn12 | 184 | 184
13 | > 150 | S=c1[nH]cnc2c1c(-c1ccccc1)c(-c1ccccc1)n2-c1cccc(Cl)c1 | 145 | 145
14 | > 150 | O=c1[nH]nc2c3c(-c4ccccc4)c(-c4ccccc4)n(C4CCCCC4)c3ncn12 | 171 | 171
15 | > 150 | Cc1ccc(Nc2ncnc3c2c(-c2ccccc2)c(-c2ccccc2)n3-c2cccc(Cl)c2)cc1 | 123 | 123
16 | > 150 | Cc1ccccc1Nc1ncnc2c1c(-c1ccccc1)c(-c1ccccc1)n2C1CCCCC1 | 153 | 153
17 | > 150 | Clc1cccc(-n2c(-c3ccccc3)c(-c3ccccc3)c3c2ncn2cnnc32)c1 | 190 | 190
18 | > 150 | Cc1nc2c(c(-c3ccccc3)c(-c3ccccc3)n2-c2ccc(Cl)cc2)c(=O)[nH]1 | 97 | 97
19 | > 150 | c1ccc(Nc2ncnc3c2c(-c2ccccc2)c(-c2ccccc2)n3C2CCCCC2)cc1 | 158 | 158
20 | > 150 | Cc1nc2c(c(-c3ccccc3)c(-c3ccccc3)n2C2CCCCC2)c(=O)[nH]1 | 130 | 130

The next lines start with the compound.

Row | Structure (SMILES) | IC50 [2] [µM] | CC50 at 72 h [1] [µM] | CC50 [3] [µM]
21 | O=c1[nH]nc2c3c(-c4ccccc4)c(-c4ccccc4)n(-c4cccc(Cl)c4)c3ncn12 | > 150 | 183 | 183
22 | N#Cc1c(-c2ccccc2)c(-c2ccccc2)n(-c2cccc(Cl)c2)c1N | > 150 | 189 | 189
23 | S=c1[nH]cnc2c1c(-c1ccccc1)c(-c1ccccc1)n2-c1ccc(Cl)cc1 | > 150 | 121 | 121
24 | Clc1cccc(-n2c(-c3ccccc3)c(-c3ccccc3)c3c(Nc4ccccc4)ncnc32)c1 | > 150 | 148 | 148
25 | C(=N\Nc1ncnc2c1c(-c1ccccc1)c(-c1ccccc1)n2C1CCCCC1)/c1ccccc1 | > 150 | 148 | 148
26 | COc1ccc(/C=N/Nc2ncnc3c2c(-c2ccccc2)c(-c2ccccc2)n3C2CCCCC2)cc1 | > 150 | 140 | 140
27 | O=c1[nH]cnc2c1c(-c1ccccc1)c(-c1ccccc1)n2-c1cccc(Cl)c1 | > 150 | 151 | 151
28 | CC(=O)Nc1c(C#N)c(-c2ccccc2)c(-c2ccccc2)n1C1CCCCC1 | > 150 | 183 | 183
29 | Cc1cc(C)n(-c2ncnc3c2c(-c2ccccc2)c(-c2ccccc2)n3C2CCCCC2)n1 | > 150 | 156 | 156
30 | CC(=O)Nc1c(C#N)c(-c2ccccc2)c(-c2ccccc2)n1-c1ccc(Cl)cc1 | > 150 | 146 | 146
31 | S=c1[nH]nc2c3c(-c4ccccc4)c(-c4ccccc4)n(-c4ccc(Cl)cc4)c3ncn12 | > 150 | 138 | 138
32 | Cc1cc(C)n(-c2ncnc3c2c(-c2ccccc2)c(-c2ccccc2)n3-c2ccc(Cl)cc2)n1 | > 150 | 147 | 147
33 | COc1ccc(/C=N/Nc2ncnc3c2c(-c2ccccc2)c(-c2ccccc2)n3-c2ccc(Cl)cc2)cc1 | > 150 | 113 | 113
34 | c1ccc(-c2c(-c3ccccc3)n(C3CCCCC3)c3ncn4cnnc4c23)cc1 | > 150 | 178 | 178
35 | Clc1cccc(-n2c(-c3ccccc3)c(-c3ccccc3)c3c(N/N=C/c4ccccc4)ncnc32)c1 | > 150 | 140 | 140
36 | S=c1[nH]nc2c3c(-c4ccccc4)c(-c4ccccc4)n(C4CCCCC4)c3ncn12 | > 150 | 188 | 188
37 | S=c1[nH]cnc2c1c(-c1ccccc1)c(-c1ccccc1)n2C1CCCCC1 | > 150 | 130 | 130
38 | Clc1ccc(-n2c(-c3ccccc3)c(-c3ccccc3)c3c(N/N=C/c4ccccc4)ncnc32)cc1 | > 150 | 140 | 140
39 | Cc1nnc2c3c(-c4ccccc4)c(-c4ccccc4)n(-c4cccc(Cl)c4)c3ncn12 | > 150 | 161 | 161
40 | N#Cc1c(-c2ccccc2)c(-c2ccccc2)n(C2CCCCC2)c1N | > 150 | 176 | 176
41 | Cc1cccc(Nc2ncnc3c2c(-c2ccccc2)c(-c2ccccc2)n3-c2ccc(Cl)cc2)c1 | > 150 | 1020 | 1020
42 | CC(=O)Nc1c(C#N)c(-c2ccccc2)c(-c2ccccc2)n1-c1cccc(Cl)c1 | > 150 | 146 | 146
43 | NNc1ncnc2c1c(-c1ccccc1)c(-c1ccccc1)n2C1CCCCC1 | > 150 | 157 | 157
44 | Cc1nc2c(c(-c3ccccc3)c(-c3ccccc3)n2-c2cccc(Cl)c2)c(=O)[nH]1 | > 150 | 97 | 97
45 | Clc1ccc(-n2c(-c3ccccc3)c(-c3ccccc3)c3c(Nc4ccccc4)ncnc32)cc1 | > 150 | 127 | 127
46 | COc1ccc(/C=N/Nc2ncnc3c2c(-c2ccccc2)c(-c2ccccc2)n3-c2cccc(Cl)c2)cc1 | > 150 | 151 | 151
47 | Cc1ccc(Nc2ncnc3c2c(-c2ccccc2)c(-c2ccccc2)n3C2CCCCC2)cc1 | > 150 | 153 | 153
48 | Clc1ccc(-n2c(-c3ccccc3)c(-c3ccccc3)c3c2ncn2cnnc32)cc1 | > 150 | 190 | 190
49 | Cc1nnc2c3c(-c4ccccc4)c(-c4ccccc4)n(C4CCCCC4)c3ncn12 | > 150 | 172 | 172
